The target of the series is DGAT2. The note with it: ASO.

Consider 56 sequences from the OligoGym collection.

Values joined by “and” are separate entries in the source; they are usually repeats but may differ in a detail not shown here. Equal entries are not always repeated. After the bases stand the sugars from the 5' end (letter, count) and the backbone: PS all phosphorothioate, else s phosphorothioate and o phosphodiester by linkage. Methylation of C is not given here. e = 2'-O-(2-methoxyethyl) (MOE); d = 2'-deoxy (DNA)

Take “AATAACCCACAGACACCCAT (sugars e5 d10 e5, PS)”: the target mRNA inhibition (HepG2, 0.12 µM) was 0%.
For “AATGTCACAAGTTCACAAAC (sugars e5 d10 e5, PS)”, the target mRNA inhibition (HepG2, 0.12 µM) is 4%.
For “AATTTCTTTTAAATAACCCA (sugars e5 d10 e5, PS)”, the target mRNA inhibition (HepG2, 0.12 µM) was 0%.
The same measure, in the same setting: the figure for “ACAAAGCCCTTGCGGTTCCG (sugars e5 d10 e5, PS)” is 35%.
For “ACAACAGCAAATATACACCA (sugars e5 d10 e5, PS)”, the target mRNA inhibition (HepG2, 2.5 µM) was 87% and the target mRNA inhibition (HepG2, 10 µM) came out at 56%.
In turn, “ACACCAGGATCTCAGTCACT (sugars e5 d10 e5, PS)” had a target mRNA inhibition (HepG2, 0.12 µM) of 42%.
In the case of “ACAGGACCCACTGGAGCACT (sugars e2 d13 e5, PS)”, the target mRNA inhibition (HepG2, 0.12 µM) was 68%.
In turn, “ACAGTGGTGATGGGCTTGGA (sugars e5 d10 e5, PS)” showed a target mRNA inhibition (HepG2, 0.12 µM) of 52%.
“ACCACAGCGATAATCACACA (sugars e5 d10 e5, PS)”: the target mRNA inhibition by setting is: (HepG2, 2.5 µM) 54%; (HepG2, 10 µM) 89%.
On to “ACCAGGGCCTCCATGTACAT (sugars e2 d13 e5, PS)”, for which, under “HepG2, 0.12 µM”, the target mRNA inhibition was found to be 50%.
As to “ACCATAATCTGCACAGGTTC (sugars e5 d10 e5, PS)”, the target mRNA inhibition is 62% (HepG2, 2.5 µM) and 84% (HepG2, 10 µM).
Turning to “ACCATTTTCACAAGGAGAAG (sugars e5 d10 e5, PS)”, the target mRNA inhibition (HepG2, 0.12 µM) was 30%.
Regarding “ACCCAACCTTTAAGGCCTAT (sugars e5 d10 e5, PS)”, the target mRNA inhibition by setting is: (HepG2, 2.5 µM) 69% and 59% and 70%; (HepG2, 10 µM) 93% and 91% and 95%.
In turn, “ACCCCGGAGTAGGCGGCTAT (sugars e5 d10 e5, PS)” showed a target mRNA inhibition (HepG2, 0.12 µM) of 46%.
Turning to “ACTCAAAAATATACATGCTC (sugars e5 d10 e5, PS)”, the target mRNA inhibition came to 67% (HepG2, 2.5 µM) and 92% (HepG2, 10 µM).
Where the note is “HepG2, 0.12 µM”, “ACTTTTTCCTTCTTAAAAAA (sugars e5 d10 e5, PS)” gave a target mRNA inhibition of 0%.
With “AGACATCAGGTACTCCCTCA (sugars e5 d10 e5, PS)”, the target mRNA inhibition (HepG2, 0.12 µM) came to 35%.
Turning to “AGAGGTTCAACATCCAATTT (sugars e5 d10 e5, PS)”, the target mRNA inhibition (HepG2, 2.5 µM) stood at 0% and the target mRNA inhibition (HepG2, 10 µM) is 86%.
Take “AGATGGACAGGTGATTCTAA (sugars e5 d10 e5, PS)”: the target mRNA inhibition (HepG2, 0.12 µM) turned out to be 50%.
In the case of “AGCACTGACATGGTAAGTCC (sugars e5 d10 e5, PS)”, the target mRNA inhibition reads like this: (HepG2, 2.5 µM) 75% and 68%; (HepG2, 10 µM) 93% and 91%.
Take “AGCCAGGTAAGGCCGTATGC (sugars e5 d10 e5, PS)”: where the note is “HepG2, 0.12 µM”, the target mRNA inhibition was 70%.
On the same count and under the same terms, the value for “AGCCCTCCTCGAAGATCACC (sugars e5 d10 e5, PS)” was 39%.
As to “AGCCTGGATGGTGGTTGCAA (sugars e5 d10 e5, PS)”, the target mRNA inhibition reads like this: (HepG2, 2.5 µM) 73%; (HepG2, 10 µM) 78%.
Regarding “AGCTCAGAGACTCAGCCGCA (sugars e2 d13 e5, PS)”, the target mRNA inhibition (HepG2, 0.12 µM) stood at 86%.
Consider “AGCTCATGAGAAGCTTAGAA (sugars e5 d10 e5, PS)”, for which the target mRNA inhibition runs as follows: (HepG2, 2.5 µM) 62%; (HepG2, 10 µM) 82%.
As to “AGCTTCACCAGGGCCTCCAT (sugars e5 d10 e5, PS)”, where the note is “HepG2, 0.12 µM”, the target mRNA inhibition is 42%.
As to “AGGAAGGAAATGCTAGGCCT (sugars e5 d10 e5, PS)”, the target mRNA inhibition (HepG2, 0.12 µM) is 64%.
For the sequence “AGGCACCTGTTACTACATGT (sugars e5 d10 e5, PS)”, the target mRNA inhibition (HepG2, 2.5 µM) came out at 78%; the target mRNA inhibition (HepG2, 10 µM) is 93% and 91%.
As for “AGGCATGCTTCCTCCCACTT (sugars e5 d10 e5, PS)”, the target mRNA inhibition by setting is: (HepG2, 2.5 µM) 53%; (HepG2, 10 µM) 85%.
Regarding “AGGCCACAGTGGCAACAGAG (sugars e5 d10 e5, PS)”, the target mRNA inhibition (HepG2, 0.12 µM) was 54%.
Regarding “AGGGCACCAGCCCCCAGGTG (sugars e5 d10 e5, PS)”, under “HepG2, 0.12 µM”, the target mRNA inhibition turned out to be 29%.
On the same count and under the same terms, the figure for “AGGTAAGGCCGTATGCCTGG (sugars e3 d14 e3, PS)” is 67%.
Still for that read-out and setting: the value for “AGGTAAGGCCGTATGCCTGG (sugars e5 d10 e5, PS)” was 72%.
Take “AGTAAGCCTCGGTGTCCTCT (sugars e5 d10 e5, PS)”: the target mRNA inhibition (HepG2, 2.5 µM) is 61% and 76% and 75%; the target mRNA inhibition (HepG2, 10 µM) is 92% and 91% and 95%.
“AGTAGTCTCGAAAGTAGCGC (sugars e5 d10 e5, PS)” gave a target mRNA inhibition (HepG2, 0.12 µM) of 39%.
For “AGTCACTGACTCACAACAGC (sugars e5 d10 e5, PS)”, the target mRNA inhibition by setting is: (HepG2, 2.5 µM) 45%; (HepG2, 10 µM) 83%.
“AGTCTTCCTTCTCCTCCACC (sugars e5 d10 e5, PS)” displayed a target mRNA inhibition (HepG2, 2.5 µM) of 69% and a target mRNA inhibition (HepG2, 10 µM) of 84%.
For the sequence “AGTGCTTTCTAAGTACCCTT (sugars e5 d10 e5, PS)”, the target mRNA inhibition reads like this: (HepG2, 2.5 µM) 91% and 88%; (HepG2, 10 µM) 90% and 94%.
Where the note is “HepG2, 0.12 µM”, “AGTTTCACAAAGCCCTTGCG (sugars e5 d10 e5, PS)” registered a target mRNA inhibition of 25%.
Turning to “ATACCTTATCTTTGTCCACA (sugars e5 d10 e5, PS)”, the target mRNA inhibition by setting is: (HepG2, 2.5 µM) 79%; (HepG2, 10 µM) 94%.
Turning to “ATAGCATTGCCACTCCCATT (sugars e3 d14 e3, PS)”, the target mRNA inhibition (HepG2, 0.12 µM) stood at 71%.
For “ATAGTTCCTGGTGGTCAGCA (sugars e5 d10 e5, PS)”, the target mRNA inhibition (HepG2, 0.12 µM) amounted to 46%.
As for “ATCACAGAATTATCAGCAGT (sugars e5 d10 e5, PS)”, the target mRNA inhibition runs as follows: (HepG2, 2.5 µM) 59%; (HepG2, 10 µM) 92%.
Turning to “ATCACAGAGCTTGGTTCATC (sugars e5 d10 e5, PS)”, the target mRNA inhibition reads like this: (HepG2, 2.5 µM) 61% and 44%; (HepG2, 10 µM) 93% and 85%.
As for “ATCACTTGCTTGAGGTCAGG (sugars e5 d10 e5, PS)”, the target mRNA inhibition is, setting by setting: (HepG2, 2.5 µM) 70%; (HepG2, 10 µM) 90%.
For “ATCCAGAGACTGAATTCTAG (sugars e5 d10 e5, PS)”, in that order: 61% and 88%.
“ATCCATGTCATCAGCCACCC (sugars e5 d10 e5, PS)”: the target mRNA inhibition is, setting by setting: (HepG2, 2.5 µM) 61% and 63%; (HepG2, 10 µM) 86% and 80%.
Regarding “ATCCCAACTCTGCCATTTAA (sugars e5 d10 e5, PS)”, the target mRNA inhibition reads like this: (HepG2, 2.5 µM) 60%; (HepG2, 10 µM) 90%.
In turn, “ATCCTGGAGGCCAGTCCAGG (sugars e5 d10 e5, PS)” registered a target mRNA inhibition (HepG2, 0.12 µM) of 18%.
In the case of “ATGACCTTGGGTCAGAGGAA (sugars e5 d10 e5, PS)”, the target mRNA inhibition is, setting by setting: (HepG2, 2.5 µM) 61%; (HepG2, 10 µM) 46%.
For “ATGAGCTCTCAAGTCTTCCT (sugars e5 d10 e5, PS)”, in that order: 67% and 93%.
Turning to “ATGCCAATGCCTAGGTCACA (sugars e5 d10 e5, PS)”, the target mRNA inhibition is, setting by setting: (HepG2, 2.5 µM) 78%; (HepG2, 10 µM) 91%.
Sequence “ATGCCTGAGGGCAGCAGTGT (sugars e5 d10 e5, PS)” came in with a target mRNA inhibition (HepG2, 0.12 µM) of 45%.
The same measure, in the same setting: the value for “ATGGAGTGACAGGGCAGGAA (sugars e5 d10 e5, PS)” was 59%.
With “ATGGTGTGTTGGCTCCCTGT (sugars e5 d10 e5, PS)”, the target mRNA inhibition runs as follows: (HepG2, 2.5 µM) 53%; (HepG2, 10 µM) 53%.
For “ATTCATCTTTCCAGATCCGG (sugars e5 d10 e5, PS)”, the target mRNA inhibition reads like this: (HepG2, 2.5 µM) 92%; (HepG2, 10 µM) 88%.
